Results reported in ChEMBL document CHEMBL5356967, “Design, synthesis, evaluation and optimization of novel azole analogues as potent antifungal agents” (Bioorg Med Chem, 2024).
In brackets after ≈: the same amount, converted by molar mass. Activity calls are given as the source filed them. The rule behind the calls is not given here.

How the values were obtained:
[1] = test system: Candida albicans; assay: Antifungal activity against Candida albicans Y0109 assessed as inhibition of fungal growth incubated for 24 hrs by broth microdilution method; type: functional
[2] = test system: Candida albicans; assay: Antifungal activity against Candida albicans SC5314 assessed as inhibition of fungal growth incubated for 24 hrs by broth microdilution method; type: functional
[3] = test system: Cryptococcus neoformans; assay: Antifungal activity against Cryptococcus neoformans ATCCBLS108 assessed as inhibition of fungal growth incubated for 72 hrs by broth microdilution method; type: functional
[4] = test system: Candida parapsilosis; assay: Antifungal activity against Candida parapsilosis 0306392 assessed as inhibition of fungal growth incubated for 24 hrs by broth microdilution method; type: functional; conditions: Lodderomyces parapsilosis
[5] = test system: Candida tropicalis; assay: Antifungal activity against Candida tropicalis 0370354 assessed as inhibition of fungal growth incubated for 24 hrs by broth microdilution method; type: functional
[6] = test system: Trichophyton rubrum; assay: Antifungal activity against Trichophyton rubrum 0501124 assessed as inhibition of fungal growth incubated for 24 hrs by broth microdilution method; type: functional
[7] = test system: Nannizzia gypsea; assay: Antifungal activity against Microsporum gypseum 0310388 assessed as inhibition of fungal growth incubated for 24 hrs by broth microdilution method; type: functional
[8] = test system: Aspergillus fumigatus; assay: Antifungal activity against Aspergillus fumigatus 0504656 assessed as inhibition of fungal growth incubated for 48 hrs by broth microdilution method; type: functional
[9] = test system: Candida albicans; assay: Potency index, ratio of Ketoconazole MIC80 to test compound MIC80 for antifungal activity against Candida albicans Y0109 assessed as inhibition of fungal growth incubated for 24 hrs by broth microdilution method; type: functional
[10] = test system: Candida albicans; assay: Potency index, ratio of Fluconazole MIC80 to test compound MIC80 for antifungal activity against Candida albicans Y0109 assessed as inhibition of fungal growth incubated for 24 hrs by broth microdilution method; type: functional
[11] = test system: Candida albicans; assay: Potency index, ratio of Ketoconazole MIC80 to test compound MIC80 for antifungal activity against Candida albicans SC5314 assessed as inhibition of fungal growth incubated for 24 hrs by broth microdilution method; type: functional
[12] = test system: Candida albicans; assay: Potency index, ratio of Fluconazole MIC80 to test compound MIC80 for antifungal activity against Candida albicans SC5314 assessed as inhibition of fungal growth incubated for 24 hrs by broth microdilution method; type: functional
[13] = test system: Candida albicans; assay: Antifungal activity against fluconazole-resistant Candida albicans 901 assessed as inhibition of fungal growth incubated for 24 hrs by broth microdilution method; type: functional
[14] = test system: Candida albicans; assay: Antifungal activity against fluconazole-resistant Candida albicans 904 assessed as inhibition of fungal growth incubated for 24 hrs by broth microdilution method; type: functional
[15] = test system: NIH3T3; assay: Cytotoxicity against mouse NIH/3T3 cells assessed as reduction in cell viability at below 16 microg/ml incubated for 24 hrs by CCK-8 assay; type: toxicity, cell-based; conditions: nih3t3, 24 h, dose < 16 µg/ml
[16] = test system: Candida parapsilosis; assay: Potency index, ratio of Itraconazole MIC80 to test compound MIC80 for antifungal activity against Candida parapsilosis 0306392 assessed as inhibition of fungal growth incubated for 24 hrs by broth microdilution method; type: functional
[17] = test system: Candida parapsilosis; assay: Potency index, ratio of Fluconazole MIC80 to test compound MIC80 for antifungal activity against Candida parapsilosis 0306392 assessed as inhibition of fungal growth incubated for 24 hrs by broth microdilution method; type: functional
[18] = test system: Candida parapsilosis; assay: Potency index, ratio of Ketoconazole MIC80 to test compound MIC80 for antifungal activity against Candida parapsilosis 0306392 assessed as inhibition of fungal growth incubated for 24 hrs by broth microdilution method; type: functional
[19] = test system: Cryptococcus neoformans; assay: Antifungal activity against Cryptococcus neoformans ATCCBLS108 assessed as inhibition of fungal growth at 4 ug/ml incubated for 48 hrs by spot assay; type: functional, organism-based; conditions: dose 4.0 µg/ml
[20] = test system: Candida parapsilosis; assay: Antifungal activity against Candida parapsilosis 0306392 assessed as inhibition of fungal growth at 4 ug/ml incubated for 48 hrs by spot assay; type: functional, organism-based; conditions: dose 4.0 µg/ml
[21] = test system: Candida tropicalis; assay: Antifungal activity against Candida tropicalis 0370354 assessed as inhibition of fungal growth at 4 ug/ml incubated for 48 hrs by spot assay; type: functional, organism-based; conditions: dose 4.0 µg/ml
[22] = test system: Candida albicans; assay: Antifungal activity against Candida albicans SC5314 assessed as inhibition of fungal growth at 4 ug/ml incubated for 48 hrs by spot assay; type: functional, organism-based; conditions: dose 4.0 µg/ml
[23] = test system: Candida albicans; assay: Antifungal activity against fluconazole-resistant Candida albicans 901 assessed as inhibition of fungal growth at 4 ug/ml incubated for 48 hrs by spot assay; type: functional, organism-based; conditions: dose 4.0 µg/ml
[24] = test system: Candida albicans; assay: Antifungal activity against fluconazole-resistant Candida albicans 904 assessed as inhibition of fungal growth at 4 ug/ml incubated for 48 hrs by spot assay; type: functional, organism-based; conditions: dose 4.0 µg/ml

Structure (SMILES)	MIC80 [1] [µg/mL]	MIC80 [2] [µg/mL]	MIC80 [3] [µg/mL]	MIC80 [4] [µg/mL]	MIC80 [5] [µg/mL]	MIC80 [6] [µg/mL]	MIC80 [7] [µg/mL]	MIC80 [8] [µg/mL]	Ratio [9]	Ratio [10]	Ratio [11]	Ratio [12]	MIC80 [13] [µg/mL]	MIC80 [14] [µg/mL]	also measured
Oc1ccc([C@@]2(Cn3ccnc3)OC[C@H](Cn3cc(C4CC4)nn3)O2)c(F)c1 (mixture of isomers)	0.063	0.25	0.25	0.25	0.25	4	0.125	16	–	–	–	–	–	–	–
CCCN(CCC)CCc1cn(C[C@H]2CO[C@](Cn3ccnc3)(c3ccc(O)cc3F)O2)nn1 (mixture of isomers)	0.016	0.016	0.125	0.25	1	0.125	0.125	> 64	64	16	64	16	> 64	> 64	–
CCCCCOc1ccc(-c2cn(C[C@H]3CO[C@](Cn4ccnc4)(c4ccc(O)cc4F)O3)nn2)cc1 (mixture of isomers)	0.016	0.016	0.063	0.125	1	0.5	0.25	16	64	16	64	16	> 64	> 64	–
OCCC1CCN(CCc2cn(C[C@H]3CO[C@](Cn4ccnc4)(c4ccc(O)cc4F)O3)nn2)CC1 (mixture of isomers)	0.016	0.016	0.125	0.125	1	0.125	0.25	> 64	64	16	64	16	2	16	Activity [15]: Non-Toxic
Oc1ccc([C@@]2(Cn3ccnc3)OC[C@H](Cn3cc(CCN4CCCCC4)nn3)O2)c(F)c1 (mixture of isomers)	0.063	0.063	0.063	0.063	0.125	0.25	0.25	> 64	–	–	–	–	–	–	Ratio [16]: 4; Ratio [17]: 16; Ratio [18]: 32
OCC1CCN(CCc2cn(C[C@H]3CO[C@](Cn4ccnc4)(c4ccc(O)cc4F)O3)nn2)CC1 (mixture of isomers)	0.016	0.016	0.063	0.063	0.063	0.5	0.25	16	64	16	64	16	2	8	Activity [19]: Active; Activity [20]: Active; Activity [21]: Active; Activity [22]: Active; Activity [23]: Active; Activity [24]: Active; Activity [15]: Non-Toxic
CCN(CC)CCc1cn(C[C@H]2CO[C@](Cn3ccnc3)(c3ccc(O)cc3F)O2)nn1 (mixture of isomers)	0.016	0.016	0.063	0.125	0.125	0.25	0.125	16	64	16	64	16	> 64	> 64	–
Oc1ccc([C@@]2(Cn3ccnc3)OC[C@H](Cn3cc(CCN4CCOCC4)nn3)O2)c(F)c1 (mixture of isomers)	0.063	0.063	0.063	0.125	0.125	0.5	0.25	> 64	–	–	–	–	–	–	Ratio [16]: 4; Ratio [17]: 16; Ratio [18]: 32
OC(Cn1cncn1)(Cn1cncn1)c1ccc(F)cc1F [FLUCONAZOLE]	0.25 (≈ 0.816 µM)	0.25 (≈ 0.816 µM)	1 (≈ 3.27 µM)	1 (≈ 3.27 µM)	16 (≈ 52.2 µM)	4 (≈ 13.1 µM)	1 (≈ 3.27 µM)	> 64	–	–	–	–	> 64	> 64	Activity [19]: Active; Activity [20]: Active; Activity [21]: Active; Activity [22]: Active; Activity [23]: inactive; Activity [24]: inactive
CCC(C)n1ncn(-c2ccc(N3CCN(c4ccc(OCC5COC(Cn6cncn6)(c6ccc(Cl)cc6Cl)O5)cc4)CC3)cc2)c1=O (stereo not given) [ITRACONAZOLE]	0.063 (≈ 0.0893 µM)	0.25 (≈ 0.354 µM)	0.063 (≈ 0.0893 µM)	0.25 (≈ 0.354 µM)	0.25 (≈ 0.354 µM)	0.063 (≈ 0.0893 µM)	0.25 (≈ 0.354 µM)	1 (≈ 1.42 µM)	–	–	–	–	–	–	–
CC(=O)N1CCN(c2ccc(OC[C@@H]3CO[C@@](Cn4ccnc4)(c4ccc(Cl)cc4Cl)O3)cc2)CC1 [LEVOKETOCONAZOLE]	1 (≈ 1.88 µM)	1 (≈ 1.88 µM)	1 (≈ 1.88 µM)	2 (≈ 3.76 µM)	32 (≈ 60.2 µM)	4 (≈ 7.53 µM)	16 (≈ 30.1 µM)	> 64	–	–	–	–	> 64	> 64	–
C[C@@H](c1ncncc1F)[C@](O)(Cn1cncn1)c1ccc(F)cc1F [VORICONAZOLE]	0.016 (≈ 0.0458 µM)	0.016 (≈ 0.0458 µM)	0.016 (≈ 0.0458 µM)	0.016 (≈ 0.0458 µM)	0.063 (≈ 0.18 µM)	0.063 (≈ 0.18 µM)	0.063 (≈ 0.18 µM)	0.25 (≈ 0.716 µM)	–	–	–	–	–	–	–
